This is an account of results in patent publication US20230174523A1, “BENZENESULFONAMIDE DERIVATIVES AS TRAP1 MODULATORS AND USES THEREOF” (Amathus Therapeutics, Inc., priority 2020, published 2023).

For the test, the target named is T1, TRAP1 enzyme (Homo sapiens, UniProt Q12931).
T1 sequence (Q12931 60-704): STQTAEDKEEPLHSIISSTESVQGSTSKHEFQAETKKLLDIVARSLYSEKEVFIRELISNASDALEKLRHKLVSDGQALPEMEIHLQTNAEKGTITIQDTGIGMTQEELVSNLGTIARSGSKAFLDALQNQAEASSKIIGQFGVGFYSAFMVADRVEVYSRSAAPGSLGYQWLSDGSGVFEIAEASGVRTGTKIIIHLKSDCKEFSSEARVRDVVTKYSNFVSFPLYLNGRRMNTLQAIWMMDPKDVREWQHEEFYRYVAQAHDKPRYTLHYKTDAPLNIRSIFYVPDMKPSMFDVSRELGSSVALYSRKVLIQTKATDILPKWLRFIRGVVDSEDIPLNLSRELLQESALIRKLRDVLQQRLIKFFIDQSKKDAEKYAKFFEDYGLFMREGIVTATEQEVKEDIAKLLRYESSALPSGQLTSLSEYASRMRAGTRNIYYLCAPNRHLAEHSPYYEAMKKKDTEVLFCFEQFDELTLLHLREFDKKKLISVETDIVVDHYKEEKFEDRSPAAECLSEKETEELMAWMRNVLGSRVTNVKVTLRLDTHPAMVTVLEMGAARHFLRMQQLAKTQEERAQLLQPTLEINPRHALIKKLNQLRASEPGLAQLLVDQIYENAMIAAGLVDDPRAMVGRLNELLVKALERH
The test is described as follows: ADP Glo assay of TRAP1 ATPase activity. The following applies: for EC50: TRAP1 ATPase activation, 150 nM Trap1, 20 μM ATP, geometric mean, read-out: ADP GLO DRC: GeoMean EC50; for Emax: read-out: ADP GLO DRC: Mean Emax. It counts as biochemical. The procedure:
Potency of test compounds to modulate the ATPase activity of TRAP1 enzyme was evaluated using ADP Glo assay. The assay is based on quantification of the ADP generated from ATP in the ATPase reaction. The assay is performed in two steps: first, after the ATPase reaction, an equal volume of ADP-Glo™ Reagent is added to terminate the ATPase reaction and deplete the remaining ATP. Second, the Kinase Detection Reagent is added to simultaneously convert ADP to ATP and allow the newly synthesized ATP to be measured using a luciferase/luciferin reaction.
All the assays were carried out in a 384-well Proxiplate. The buffer used was 25 mM Pipes pH-7.5, 40 mM KCl, 0.05 mM MgCl2, 0.025% BSA, 0.316 mM EGTA, 0.003% Empigen, 0.01% Igepal. 150 nM Trap1 enzyme was incubated with various concentrations of the test compound (0.79 μM-100 μM) at 37° C. for 30 mins (except in blank wells). 20 μM ATP was added to each well to start the reaction. The plate was spun for 1 min at 1200 rpm and then incubated at 37° C. for 60 mins. 5 μl of ADP Glo reagent was added to all the wells and spun the plate for 1 min at 1200 rpm and kept it on a shaker at ambient temperature for 60 mins. 10 μl of kinase detection mix was added to all the wells and the plate was read for Luminescence at 495 nm. The amount of ADP released was estimated from ATP/ADP standard curve generated at the same experimental conditions. Emax (Maximal percent activation) and EC50 (concentration for half maximal activation) were estimated by fitting the dose response data to a sigmoidal curve fitting equation using Graphpad Prism software V. 8.

The structures appear in SMILES notation. A value given as a limit tells only on which side of the number the result lay.

In general, EC50 refers to the concentration needed to bring the measured effect to its halfway point. By Emax is commonly meant the greatest response seen or fitted, relative to the assay's reference.

`COc1ccc(NC(=O)c2ccc3nsnc3c2)cc1S(=O)(=O)Nc1c(C)cccc1C` [Compound 1240]: the EC50 fell in the range of 10 to 20 µM and the maximum response (Emax) was in the range of 200 to 300%.
For the compound `CCc1ncsc1C(=O)Nc1ccc(OC)c(S(=O)(=O)Nc2c(C)cccc2C)c1` [Compound 1137], the concentration for a half-maximal effect (EC50) was 20 to 100 µM and the Emax was in the range of 160 to 199%.
As to `COc1ccc(NC(=O)c2ccn(-c3ccccc3)n2)cc1S(=O)(=O)Nc1c(C)cccc1C` [Compound 1071], the concentration giving a half-maximal response (EC50) lay within 10 to 20 µM and the Emax is 200 to 300%.
Turning to `COc1ccc(NC(=O)c2cnc(-c3ccccc3)[nH]2)cc1S(=O)(=O)Nc1c(C)cc(Cl)cc1C` [Compound 443], the EC50 was less than 10 µM and the Emax was in the range of 160 to 199%.
In the case of `COc1ccc(NC(=O)c2csc(-c3ccccc3)n2)cc1S(=O)(=O)N(CC(O)CO)c1ccc(Cl)cc1` (centres unmarked) [Compound 2404], the EC50 is less than 10 µM and the Emax is 123 to 159%.
The like results for `COc1ccc(NC(=O)c2cccc(-c3cnccn3)c2)cc1S(=O)(=O)Nc1c(C)cccc1C` [Compound 1222] were, in that order, 10 to 20 µM and 200 to 300%.
Consider `COc1ccc(NC(=O)c2cccc(Cc3ccc(F)cc3)c2)cc1S(=O)(=O)Nc1c(C)cccc1C` [Compound 1036], for which the half-maximal effective concentration (EC50) was less than 10 µM and the Emax lay in the range of 123 to 159%.
The corresponding values for `COc1ccc(NC(=O)c2ccc3c(c2)C2CCCS2(=O)=N3)cc1S(=O)(=O)Nc1c(C)cccc1C` (centres unmarked) [Compound 1016] are 20 to 100 µM and 200 to 300%.
As to `COc1ccc(NC(=O)c2ccoc2C(F)(F)F)cc1S(=O)(=O)Nc1c(C)cccc1C` [Compound 1122], the EC50 fell in the range of 20 to 100 µM and the Emax was 160 to 199%.
In the case of `COc1ccc(NC(=O)c2cc3ccncc3s2)cc1S(=O)(=O)Nc1c(C)cccc1C` [Compound 1043], the EC50 is less than 10 µM and the maximal effect (Emax) lay within 200 to 300%.
Turning to `COc1ccc(NC(=O)c2cccc(-c3ccccn3)c2)cc1S(=O)(=O)Nc1c(C)cccc1C` [Compound 1271], the EC50 is less than 10 µM and the maximum response (Emax) fell in the range of 160 to 199%.
The like results for `COc1ccc(NC(=O)c2ncc(-c3cc(F)c(F)c(F)c3)o2)cc1S(=O)(=O)Nc1c(C)csc1C` [Compound 2519] were, in that order, 20 to 100 µM and 123 to 159%.
With `COc1ccc(NC(=O)c2noc3c2CCCC3)cc1S(=O)(=O)Nc1c(C)cccc1C` [Compound 1114], the concentration giving a half-maximal response (EC50) lay in the range of 10 to 20 µM and the Emax fell in the range of 200 to 300%.
As to `COc1ccc(NC(=O)c2cnc(-c3cccnc3OC)[nH]2)cc1S(=O)(=O)Nc1ccc(Cl)cc1` [Compound 1951], the concentration giving a half-maximal response (EC50) is less than 10 µM and the Emax was 160 to 199%.
The like results for `COc1ccc(NC(=O)c2ccc3ncccc3c2)cc1S(=O)(=O)Nc1c(C)cccc1C` [Compound 1241] were, in that order, 10 to 20 µM and 200 to 300%.
For `COc1ccc(NC(=O)c2cc3cnccc3s2)cc1S(=O)(=O)Nc1c(C)cccc1C` [Compound 1287], the EC50 is 20 to 100 µM and the Emax is 123 to 159%.
Take `COc1ccc(NC(=O)c2onc3c2CCCC3)cc1S(=O)(=O)Nc1c(C)cccc1C` [Compound 1056]: the EC50 lay in the range of 20 to 100 µM and the Emax is 123 to 159%.
The like results for `Cc1ccc(Sc2ncccc2C(=O)Nc2ccc(F)c(S(=O)(=O)Nc3ccc(Cl)cc3)c2)cc1` [Compound 764] were, in that order, 10 to 20 µM and 123 to 159%.
The corresponding values for `COc1ccc(NC(=O)c2cnccc2-c2ccccc2)cc1S(=O)(=O)Nc1c(C)cccc1C` [Compound 1022] are 20 to 100 µM and 200 to 300%.
The like results for `COc1ccc(NC(=O)c2c(I)cnn2C)cc1S(=O)(=O)Nc1c(C)cccc1C` [Compound 1088] were, in that order, 20 to 100 µM and 160 to 199%.
Take `COc1ccc(NC(=O)c2cc(C)n(C(F)F)n2)cc1S(=O)(=O)Nc1c(C)cccc1C` [Compound 1149]: the EC50 is 10 to 20 µM and the Emax was in the range of 123 to 159%.
The like results for `C=C(C)c1cc(OC)c(S(=O)(=O)Nc2ccc(C(F)(F)F)cc2)cc1NC(=O)c1ncc(-c2ccccc2)o1` [Compound 1189] were, in that order, 20 to 100 µM and more than 300%.
Regarding `COc1ccc(NC(=O)c2cccc(-c3cnco3)c2)cc1S(=O)(=O)Nc1c(C)cccc1C` [Compound 1218], the EC50 was in the range of 10 to 20 µM and the Emax fell in the range of 160 to 199%.
For `COc1ccc(NC(=O)c2ccc3ncoc3c2)cc1S(=O)(=O)Nc1c(C)cccc1C` [Compound 1236], the EC50 was 20 to 100 µM and the Emax was in the range of 123 to 159%.
The like results for `COc1ccc(NC(=O)c2cc(C#N)ccc2Br)cc1S(=O)(=O)Nc1c(C)cccc1C` [Compound 1141] were, in that order, 20 to 100 µM and 160 to 199%.
The corresponding values for `COc1ccc(NC(=O)c2c(-c3ccccc3)noc2C)cc1S(=O)(=O)Nc1c(C)cccc1C` [Compound 1279] are less than 10 µM and 200 to 300%.
Consider `O=C(c1ccccc1)c1cccnc1C(=O)Nc1ccc(F)c(S(=O)(=O)Nc2ccc(Cl)cc2)c1` [Compound 836], for which the EC50 is 20 to 100 µM and the Emax lay within 200 to 300%.
The like results for `COc1ccc(NC(=O)c2ncccc2C(=O)c2ccccc2)cc1S(=O)(=O)Nc1c(C)cccc1C` [Compound 1275] were, in that order, 20 to 100 µM and 123 to 159%.
With `COc1ccc(NC(=O)c2csc3c2CCCC3)cc1S(=O)(=O)Nc1c(C)cccc1C` [Compound 1144], the EC50 was less than 10 µM and the Emax was 160 to 199%.
The corresponding values for `COc1ccc(NC(=O)c2ccnn2C(C)C)cc1S(=O)(=O)Nc1c(C)cccc1C` [Compound 1104] are 10 to 20 µM and 200 to 300%.
The corresponding values for `COc1ccc(NC(=O)c2cccc(N3CCCC3=O)c2)cc1S(=O)(=O)Nc1c(C)cccc1C` [Compound 1123] are 10 to 20 µM and 200 to 300%.
The corresponding values for `COc1ccc(NC(=O)c2ncc(-c3ccccc3)o2)cc1S(=O)(=O)Nc1c(C)cccc1C#N` [Compound 1357] are 10 to 20 µM and 160 to 199%.
As to `COc1ccc(NC(=O)c2sc(Br)nc2C)cc1S(=O)(=O)Nc1c(C)cccc1C` [Compound 1115], the EC50 was in the range of 10 to 20 µM and the Emax is 200 to 300%.
The corresponding values for `COc1ccc(NC(=O)c2cc(-c3ccccc3)no2)cc1S(=O)(=O)Nc1c(C)cccc1C` [Compound 1229] are less than 10 µM and 160 to 199%.
Take `COc1ccc(NC(=O)c2ccnc(-c3ccccc3)c2)cc1S(=O)(=O)Nc1c(C)cccc1C` [Compound 1285]: the EC50 was less than 10 µM and the Emax lay within 200 to 300%.
On to `COc1ccc(NC(=O)c2cccc(-n3nc(C)cc3C)c2)cc1S(=O)(=O)Nc1c(C)cccc1C` [Compound 1249], for which the EC50 fell in the range of 10 to 20 µM and the Emax was in the range of 160 to 199%.
As for `COc1ccc(NC(=O)c2ccnc(Cl)c2C)cc1S(=O)(=O)Nc1c(C)cccc1C` [Compound 1067], the EC50 lay within 20 to 100 µM and the Emax was in the range of 160 to 199%.
Regarding `COc1ccc(NC(=O)c2cc(-c3ccnn3C)c(Cl)s2)cc1S(=O)(=O)Nc1c(C)cccc1C` [Compound 1079], the EC50 is less than 10 µM and the Emax lay within 160 to 199%.
For the compound `COc1ccc(NC(=O)c2cnc(-c3ccccc3)s2)cc1S(=O)(=O)Nc1ccc(Cl)cc1` [Compound 468], the EC50 was less than 10 µM and the Emax lay in the range of 160 to 199%.
Consider `COc1ccc(NC(=O)c2cc3c(C)nn(C)c3s2)cc1S(=O)(=O)Nc1c(Cl)cccc1Cl` [Compound 1375], for which the 50% effective concentration (EC50) was in the range of 10 to 20 µM and the Emax fell in the range of 160 to 199%.
For `Cc1cc(C)n(Cc2cccc(C(=O)Nc3ccc(F)c(S(=O)(=O)Nc4ccc(Cl)cc4)c3)c2)n1` [Compound 807], the EC50 is less than 10 µM and the Emax is 160 to 199%.
As to `COc1ccc(NC(=O)c2cn(C)nc2C(F)F)cc1S(=O)(=O)Nc1c(C)cccc1C` [Compound 1074], the EC50 is 20 to 100 µM and the Emax lay in the range of 160 to 199%.
The like results for `COc1ccc(NC(=O)c2ccc(C)nc2OC)cc1S(=O)(=O)Nc1c(C)cccc1C` [Compound 1021] were, in that order, less than 10 µM and 200 to 300%.
